Read-outs that look alike come from different tables or passages of the source.
How the values were obtained:
[1] = Safety and adverse event profile, Phase 2 trial; assay type: in vivo, human;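 for Diarrhea, common adverse events by dose: number of subjects experiencing the event at each dose level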;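 for Nausea, common adverse events by dose: number of subjects experiencing the event at each dose level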;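 for Vomiting, common adverse events by dose: number of subjects experiencing the event at each dose level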
Source text: Tolerability limits included diarrhea or vomiting.

mouse models of PD = conditions: cited from earlier work
[2] = Pharmacokinetics of orally administered squalamine (ENT-01), Phase 2 trial; assay type: in vivo; conditions: human, in vivo, po; for Cmax: mean, approximate; for Tmax: read-out: Tmax (median value)
Experimental: PK data were collected on the 10 patients enrolled in Stage 1 and 10 patients enrolled in Stage 2 to determine the extent of systemic absorption. In Stage 1, PK data were obtained at each visit, pre-medication, at 1, 2, 4, 8 and 24 hours (Table 11). In Stage 2, PK was measured on days 1 and 6 of the randomization period pre-medication, at 1, 2, 4 and 8 hours (Table 12).
The mean Cmax, Tmax and T1/2 and AUC of the squalamine ion following squalamine (ENT-01) oral dosing for Stage 1 patients. The PK analyses are only approximate, as the lower limit of the validated concentration range was 10 ng/ml; most of the measured concentrations fell below that value. The mean Cmax, Tmax and T1/2 and AUC of the squalamine ion following squalamine (ENT-01) oral dosing for Stage 2 patients. The PK analyses are only approximate, as the lower limit of the validated concentration range was 0.5 ng/ml.

[3] = 50 mg, Stage 1, 50 mg oral, 10 patients
[4] = 100 mg, Stage 2, 100 mg oral daily, 4 patients (2 visits each)

Structure (SMILES): CC(C)[C@@H](CC[C@@H](C)[C@H]1CC[C@H]2[C@@H]3[C@H](O)C[C@H]4C[C@@H](NCCCNCCCCN)CC[C@]4(C)[C@H]3CC[C@]12C)OS(=O)(=O)O (single isomer, unassigned) [squalamine (ENT-01)]
- Diarrhea, common adverse events by dose ([1]; Stage 1, 25 mg): 1
- Nausea, common adverse events by dose ([1]; Stage 1, 25 mg): 0
- Vomiting, common adverse events by dose ([1]; Stage 1, 25 mg): 0
- Diarrhea, common adverse events by dose ([1]; Stage 1, 50 mg): 1
- Nausea, common adverse events by dose ([1]; Stage 1, 50 mg): 0
- Vomiting, common adverse events by dose ([1]; Stage 1, 50 mg): 0
- Diarrhea, common adverse events by dose ([1]; Stage 1, 75 mg): 1
- Nausea, common adverse events by dose ([1]; Stage 1, 75 mg): 0
- Vomiting, common adverse events by dose ([1]; Stage 1, 75 mg): 0
- Diarrhea, common adverse events by dose ([1]; Stage 1, 100 mg): 0
- Nausea, common adverse events by dose ([1]; Stage 1, 100 mg): 1
- Vomiting, common adverse events by dose ([1]; Stage 1, 100 mg): 1
- Diarrhea, common adverse events by dose ([1]; Stage 1, 125 mg): 1
- Nausea, common adverse events by dose ([1]; Stage 1, 125 mg): 2
- Vomiting, common adverse events by dose ([1]; Stage 1, 125 mg): 1
- Diarrhea, common adverse events by dose ([1]; Stage 1, 150 mg): 1
- Nausea, common adverse events by dose ([1]; Stage 1, 150 mg): 0
- Vomiting, common adverse events by dose ([1]; Stage 1, 150 mg): 0
- Diarrhea, common adverse events by dose ([1]; Stage 1, 175 mg): 1
- Nausea, common adverse events by dose ([1]; Stage 1, 175 mg): 1
- Vomiting, common adverse events by dose ([1]; Stage 1, 175 mg): 0
- Diarrhea, common adverse events by dose ([1]; Stage 1, 200 mg): 0
- Nausea, common adverse events by dose ([1]; Stage 1, 200 mg): 2
- Vomiting, common adverse events by dose ([1]; Stage 1, 200 mg): 0
- Diarrhea, common adverse events by dose ([1]; Stage 2, 75 mg): 7
- Dizziness (lightheadedness included), common adverse events by dose ([1]; Stage 2, 75 mg): 8
- Nausea, common adverse events by dose ([1]; Stage 2, 75 mg): 3
- Diarrhea, common adverse events by dose ([1]; Stage 2, 100 mg): 10
- Dizziness (lightheadedness included), common adverse events by dose ([1]; Stage 2, 100 mg): 7
- Nausea, common adverse events by dose ([1]; Stage 2, 100 mg): 12
- Diarrhea, common adverse events by dose ([1]; Stage 2, 125 mg): 3
- Dizziness (lightheadedness included), common adverse events by dose ([1]; Stage 2, 125 mg): 8
- Nausea, common adverse events by dose ([1]; Stage 2, 125 mg): 4
- Diarrhea, common adverse events by dose ([1]; Stage 2, 150 mg): 2
- Dizziness (lightheadedness included), common adverse events by dose ([1]; Stage 2, 150 mg): 2
- Nausea, common adverse events by dose ([1]; Stage 2, 150 mg): 11
- Diarrhea, common adverse events by dose ([1]; Stage 2, 175 mg): 1
- Dizziness (lightheadedness included), common adverse events by dose ([1]; Stage 2, 175 mg): 0
- Nausea, common adverse events by dose ([1]; Stage 2, 175 mg): 12
- Diarrhea, common adverse events by dose ([1]; Stage 2, 200 mg): 3
- Nausea, common adverse events by dose ([1]; Stage 2, 200 mg): 6
- Diarrhea, common adverse events by dose ([1]; Stage 2, 225 mg): 3
- Nausea, common adverse events by dose ([1]; Stage 2, 225 mg): 1
- Diarrhea, common adverse events by dose ([1]; Stage 2, 250 mg): 2
- Course of all other AEs ([1]; both stages): resolved spontaneously without discontinuation
- Gastrointestinal motility (mouse models of PD): restores gastrointestinal motility
- AUC(0-t) ([2]; 25 mg, Stage 1, 25 mg oral, 9 patients, read-out: AUC0-8hr): 10.8 ng·h/mL
- AUC(0-t) ([2]; 25 mg, Stage 1, 25 mg oral, 9 patients, read-out: AUC0-16hr): 19.6 ng·h/mL
- half-life ([2]; 25 mg, Stage 1, 25 mg oral, n = 3, read-out: T½ (converted)): 2.6 h
- Cmax [2, 3]: 3.73 ng/mL
- AUC(0-t) ([2]; 50 mg, Stage 1, 50 mg oral, 10 patients, read-out: AUC0-8hr): 18.5 ng·h/mL
- AUC(0-t) ([2]; 50 mg, Stage 1, 50 mg oral, 10 patients, read-out: AUC0-16hr): 33.1 ng·h/mL
- Tmax [2, 3]: 2 h
- half-life ([2]; 50 mg, Stage 1, 50 mg oral, n = 3, read-out: T½ (converted)): 3.4 h
- Cmax [2, 4]: 17.7 ng/mL
- AUC(0-t) ([2]; 100 mg, Stage 2, 100 mg oral daily, 4 patients (2 visits each), read-out: AUC0-8 hr): 70.3 ng·h/mL
- Tmax [2, 4]: 1 h
- half-life ([2]; 100 mg, Stage 2, 100 mg oral daily, n = 5, read-out: T1/2 (converted)): 4.8 h
- AUC(0-t) ([2]; 150 mg, Stage 1, 150 mg oral, 7 patients, read-out: AUC0-8hr): 31.5 ng·h/mL
- AUC(0-t) ([2]; 150 mg, Stage 1, 150 mg oral, 7 patients, read-out: AUC0-16hr): 64 ng·h/mL
- Tmax ([2]; 150 mg, Stage 1, 150 mg oral, 7 patients): 2 h

Reference: patent US20190298740A1, “METHODS AND COMPOSITIONS FOR TREATING HALLUCINATIONS AND CONDITIONS RELATED TO THE SAME” (Enterin, Inc., priority 2018, published 2019)
